In ChEMBL document CHEMBL5126526, “Non-nucleoside structured compounds with antiviral activity-past 10 years (2010-2020)” (2022):

Test system: Influenza A virus
Assay: Antiviral activity against influenza A virus (A/California/04/2009 (H1N1pdm)) infected in BALB/c mouse assessed as fold reduction in viral titers in lung homogenates at 20 mg/kg per day, po BID treated 2 hrs prior to viral infection followed by compound redosing at 12 hrs for 6 days
Type: functional

O=C(O)[C@H]1C2CCC(CC2)[C@@H]1Nc1nc(-c2c[nH]c3ncc(F)cc23)ncc1F [PIMODIVIR]
fold change (FC): 100
